In test [1] the test system is T1, K. pneumoniae D120 (mcr-8).
T1 construct: D120 (mcr-8)
The test is described as follows: microbe, parasite or virus in culture. More on the design: broth microdilution MIC of antibiotic alone (checkerboard assay). The note with it: Klebsiella pneumoniae; colistin alone. The source says: (§1) The fractional inhibitory concentration index (FICI) value was used to evaluate the drug interaction of two compounds (A and B) and calculated as the sum of FICIA and FICIB. […] To validate the potentiation, we further evaluated these combinations on several types of Gram-negative bacteria, including drug-sensitive strains, MCR-producing Enterobacterales and MBL-positive Enterobacteriaceae. […] These NDM-positive Gram-negative pathogens carry blaNDM-1 or blaNDM-5 gene and are meropenem-resistant with MICs of 16-32 µg/mL. […] To explore the synergistic bactericidal activity of this combination, time-dependent killing curves for different MCR-positive Gram-negative bacteria were also determined.

In a further test the test system is T2, S. enterica ATCC 13076.
T2 construct: ATCC 13076
The test is described as follows: microbe, parasite or virus in culture. On the set-up: broth microdilution MIC of antibiotic alone (checkerboard assay). Particulars: Salmonella enterica, ATCC13076; colistin alone.
Source text: as §1

The subject of another test is T3, E. coli DH5α (PUC19).
T3 construct: DH5α (pUC19)
The test is described as follows: microbe, parasite or virus in culture. More on the design: broth microdilution MIC of antibiotic alone (checkerboard assay). Particulars: Escherichia coli; colistin alone.
Source text: as §1

The test system of a further test is T4, E. coli CP131 (mcr-3).
T4 construct: CP131 (mcr-3)
The experiment in a line: microbe, parasite or virus in culture. On the set-up: broth microdilution MIC of antibiotic alone (checkerboard assay). The note with it: Escherichia coli; colistin alone.
Source text: as §1

The next test deals with T5, E. coli ATCC 25922.
T5 construct: ATCC 25922
The experiment in a line: microbe, parasite or virus in culture. The note with it: Escherichia coli, ATCC25922; colistin alone. On the set-up: broth microdilution MIC of antibiotic alone (checkerboard assay).
Source text: as §1

The next test concerns T6, E. coli G92 (mcr-1).
T6 construct: G92 (mcr-1)
The test is described as follows: microbe, parasite or virus in culture. More on the design: broth microdilution MIC of antibiotic alone (checkerboard assay). The note with it: Escherichia coli; colistin alone.
Source text: as §1

In test [2] the test system is T7, E. coli B2.
T7 construct: B2
The test is described as follows: microbe, parasite or virus in culture. More on the design: broth microdilution MIC of antibiotic alone (checkerboard assay). Particulars: Escherichia coli, antibiotic alone.
Source text: as §1

Test [3] concerns T7, E. coli B2. The experiment in a line: microbe, parasite or virus in culture. The note with it: antibiotic alone, without DSF; for MIC: Escherichia coli, B2. On the set-up: checkerboard broth microdilution, antibiotic alone, absorbance at 600 nm. The source says: The fractional inhibitory concentration index (FICI) value was used to evaluate the drug interaction of two compounds (A and B) and calculated as the sum of FICIA and FICIB. […] To validate the potentiation, we further evaluated these combinations on several types of Gram-negative bacteria, including drug-sensitive strains, MCR-producing Enterobacterales and MBL-positive Enterobacteriaceae.

The subject of a further test is NDM-positive E. coli C3. The experiment in a line: microbe, parasite or virus in culture. On the set-up: MIC of meropenem alone before serial passage (passage 0). The note with it: Escherichia coli, read-out: MICs of MEM, - DSF. The protocol:
To learn more about whether the addition of DSF contributes to preventing the development of antibiotic resistance, we carried out the serial passage assays in an NDM- or MCR-positive bacteria after exposure to meropenem/colistin, DSF and their combination. […] The mutation prevention index (MPI) was determined via the equation of MPC/MIC, which represents the opening of the mutant selection window (MSW, concentration range between MIC and MPC). When the MSW is narrower, drug-resistant strains are less likely to develop.

In another test the target is T8, NDM-5 (Escherichia coli, UniProt G3K399).
T8 construct: gene blaNDM-5
The experiment in a line: purified NDM-[…]) enzyme inhibition assay, absorbance at […] nm. It counts as biochemical.

Positions of bridges follow the written chain, without caps; N, C: chain ends. Non-standard residues stand in square brackets, D forms with d. Residues, ends and D or L forms follow the SMILES beside them. *: point of attachment. Heptanoyl(5-Me) = CCC(C)CCCC(=O)*; Dab = NCC[C@H](N)C(=O)O

The values that follow come from PMC10400630, “Resensitizing multidrug-resistant Gram-negative bacteria to carbapenems and colistin using disulfiram” (Communications Biology, 2023).

T8 sequence (G3K399 29-270 limits assumed): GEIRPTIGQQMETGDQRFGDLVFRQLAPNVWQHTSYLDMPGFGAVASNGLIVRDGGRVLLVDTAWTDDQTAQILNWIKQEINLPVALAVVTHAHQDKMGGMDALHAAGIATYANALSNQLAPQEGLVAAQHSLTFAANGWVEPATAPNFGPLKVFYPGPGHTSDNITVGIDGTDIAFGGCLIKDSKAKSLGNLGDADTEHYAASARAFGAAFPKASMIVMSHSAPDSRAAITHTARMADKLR

Regarding `CCC(C)CCCC(=O)N[C@@H](CCN)C(=O)N[C@H](C(=O)N[C@@H](CCN)C(=O)N[C@H]1CCNC(=O)[C@H]([C@@H](C)O)NC(=O)[C@H](CCN)NC(=O)[C@H](CCN)NC(=O)[C@H](CC(C)C)NC(=O)[C@@H](CC(C)C)NC(=O)[C@H](CCN)NC1=O)[C@@H](C)O` (stereo partly drawn) [Colistin] ({Heptanoyl(5-Me)}-[Dab]T[Dab][Dab][Dab][dL]L[Dab][Dab]T; lactam 4-C), the MIC in test [1] worked out at 4 µg/mL; in the test with S. enterica ATCC 13076, 0.125 µg/mL; in the test with E. coli DH5α (PUC19), 0.25 µg/mL; in the test on E. coli CP131 (mcr-3), 2 µg/mL; in the test on E. coli ATCC 25922, 0.5 µg/mL; with E. coli G92 (mcr-1) it was 4 µg/mL. Moreover, the MIC in the test with E. coli B2 [2] was found to be 8 µg/mL.
For the molecule `C[C@H]1c2cccc(O)c2C(=O)C2=C(O)[C@]3(O)C(=O)C(C(N)=O)=C(O)[C@@H](N(C)C)[C@@H]3[C@@H](O)[C@@H]21` [Doxycycline], the MIC in the test on E. coli B2 [3] stood at 32 µg/mL.
As for `C[C@@H](O)[C@H]1C(=O)N2C(C(=O)O)=C(S[C@@H]3CN[C@H](C(=O)N(C)C)C3)[C@H](C)[C@H]12` [Meropenem], the MIC in the test with E. coli B2 [3] turned out to be 32 µg/mL; with NDM-positive E. coli C3, 8 µg/mL.
Regarding `CO[C@H]1/C=C/O[C@@]2(C)Oc3c(C)c(O)c4c(O)c(c(/C=N/N5CCN(C)CC5)c(O)c4c3C2=O)NC(=O)/C(C)=C\C=C\[C@H](C)[C@H](O)[C@@H](C)[C@@H](O)[C@@H](C)[C@H](OC(C)=O)[C@@H]1C` [Rifampicin], in the test with E. coli B2 [3], the “MIC^a” value stood at 128 µg/mL.
On to `CN(C)c1cc(NC(=O)CNC(C)(C)C)c(O)c2c1C[C@H]1C[C@H]3[C@H](N(C)C)C(O)=C(C(N)=O)C(=O)[C@@]3(O)C(O)=C1C2=O` [Tigecycline], for which the MIC with E. coli B2 [3] is 0.5 µg/mL.
Regarding `CN[C@H](CC(C)C)C(=O)N[C@H]1C(=O)N[C@@H](CC(N)=O)C(=O)N[C@H]2C(=O)N[C@H]3C(=O)N[C@H](C(=O)N[C@H](C(=O)O)c4cc(O)cc(O)c4-c4cc3ccc4O)[C@H](O)c3ccc(c(Cl)c3)Oc3cc2cc(c3O[C@@H]2O[C@H](CO)[C@@H](O)[C@H](O)[C@H]2O[C@H]2C[C@](C)(N)[C@H](O)[C@H](C)O2)Oc2ccc(cc2Cl)[C@H]1O` [Vancomycin], the MIC in the test on E. coli B2 [3] was 64 µg/mL.
One may read the IC50 as the concentration at which inhibition is half-maximal. The low end stands for greater potency in that assay, the high end for weaker potency in that assay. Consider `CCN(CC)C(=S)SSC(=S)N(CC)CC` [disulfiram], for which it took 95.5 µM to reach half-maximal inhibition against NDM-5 (IC50).
